Literature values as cited in patent US20140005280A1, “CARBOXYMETHYL STARCH AND CHITOSAN POLYELECTROLYTE COMPLEXES” (4413261 Canada Inc. (Spencer Canada), priority 2011, published 2014).

Conditions: US Pharmacopeia, 2000

CC(=O)Oc1ccccc1C(=O)O [aspirin, acetylsalicylic acid]
solubility: slightly soluble in water
